Laboratory results from article PMC6273235, “Phenolic Constituents of Medicinal Plants with Activity against Trypanosoma brucei” (Molecules, 2016).
Read-outs that look alike come from different tables or passages of the source.

Experiments:
HepG2 cells = assay: Cytotoxicity assay (resazurin, 3 days), HepG2; assay type: cell-based, human; details: for s.i (selectivity index) HepG2: CC50 (HepG2)/IC50 (T. brucei)
Protocol: (§1) HEK293T and HepG2 cells were cultured at 37 °C with 5% CO2 in Dulbecco’s modified eagle medium containing 10% FBS. Both cell lines were plated individually in 384 well plates (4000 cells per well) and the natural compounds (two fold 10 points serial dilution starting from 5 ppm) were added for 3 days of incubation.

[1] = Cytotoxicity assay (resazurin, 3 days), HepG2; assay type: cell-based, human; details: human
Protocol: as §1

[2] = Cytotoxicity assay (resazurin, 3 days), HEK293T; assay type: cell-based, human; details: human
Protocol: as §1

HEK293T cells = assay: Cytotoxicity assay (resazurin, 3 days), HEK293T; assay type: cell-based, human; details: for s.i (selectivity index) HEK239T: CC50 (HEK293T)/IC50 (T. brucei)
Protocol: as §1

[3] = test system: T. b. brucei strain 427 (bloodstream forms); assay: Anti-trypanosomal activity on T. brucei (resazurin growth inhibition, 3 days); assay type: cell-based, Trypanosoma brucei
Excerpt: To identify inhibitors of T. brucei growth, we conducted a screening of a proprietary library consisting of 440 purified natural products isolated from medicinal plants at the CNU laboratories. […] Nevertheless, since, according to the 5th rule, natural products may also represent exceptions from the other rules, all compounds were submitted to antiparasitic screening performed at a single concentration of 5 ppm (µg/mL) of each purified natural product.
T. b. brucei strain 427 (bloodstream forms) were cultivated at 37 °C with 5% CO2 atmosphere in HMI-9 medium supplemented with 10% FBS. […] After the incubation, the parasites were exposed to 120 µM of resazurin sodium salt for 5 h. Then, the parasites were fixed with 4% PFA and the assay plates were read by Victor 3 (PerkinElmer, Waltham, MA, USA) at 530 nmEx/590 nmEm. Pentamidine was used as a reference drug and DMSO 0.5% was used as a drug-negative control.

Trypanosoma = test system: Trypanosoma; parameters: method as in PMID 16569852, PMID 20004045; details: cited from earlier work
[4] = Trypanosoma brucei, 72 h, T. b. brucei strain 427 bloodstream forms, 3 days, mean ± SD, read-out: T. brucei IC50
[5] = Trypanosoma brucei, -log IC50 [M], experimental, read-out: pIC50 Tbr(exp) (converted)
[6] = T. b. brucei strain 427 bloodstream forms, 3 days, mean ± SD, read-out: T. brucei IC50
[7] = HEK293T cells, 3 days, > = highest concentration tested (5 ppm), read-out: Cytotoxicity CC50 Values HEK239T

Molecule | s.i (selectivity index) HepG2 (HepG2 cells) | CC50 at 3 days [1] | CC50 at 3 days [2] | s.i (selectivity index) HEK239T (HEK293T cells) | IC50 [3, 4] | IC50 [3, 5] | anti-trypanosomal activity previously reported (Trypanosoma) | IC50 [3, 6] | CC50 at 3 days ([1]; HepG2 cells, 3 days, > = highest concentration tested (5 ppm), read-out: Cytotoxicity CC50 Values HepG2) | CC50 at 3 days [2, 7] | IC50 ([3]; Trypanosoma brucei, 72 h, read-out: T. brucei IC50) | IC50 ([3]; Trypanosoma brucei, read-out: pIC50 Tbr(exp) (converted)) | CC50 (HepG2 cells; HepG2 cells, 3 days, > = highest concentration tested (5 ppm)) | CC50 (HEK293T cells; [7]) | pIC50 Tbr(exp) ([3]; -log IC50 [M], experimental)
O=C(/C=C/c1ccc(O)cc1)CC(=O)/C=C/c1ccc(O)cc1 [Compound 1, bisdemethoxycurcumin] | >3.30 | > 32.5 µM | > 32.5 µM | >3.30 | 9.84e-06 ± 8.4e-07 M | 9.84e-06 M | anti-trypanosomal activity |  |  |  |  |  |  |  | 
CC(C)=CCc1cc(C(=O)/C=C/c2ccc(O)c(O)c2)c(O)cc1O [Compound 4, broussochalcone A] |  | > 29.2 µM | > 28.8 µM | >13.28 |  | 2.17e-06 M |  |  |  |  |  |  |  |  | 
COc1cc(O)ccc1C(=O)/C=C/c1ccc(O)cc1 [Compound 5, 3-deoxysappanchalcone] | >3.58 | > 37.1 µM | > 30.2 µM | >2.91 | > 1e-05 M | 1.04e-05 M |  | 1.04e-05 ± 3.36e-06 M |  |  |  |  |  |  | 
CC(C)=CCC/C(C)=C/Cc1c(O)ccc(C(=O)/C=C/c2ccc(O)cc2)c1O [Compound 6, xanthoangelol] | >3.43 | > 25.4 µM | > 25.4 µM | >3.43 | 7.42e-06 ± 1.12e-06 M | 7.41e-06 M |  |  |  |  |  |  |  |  | 
COc1cc(CC/C=C/C(=O)CCc2ccccc2)ccc1O [Compound 7, 7-(4″-hydroxy-3″-methoxyphenyl)-1-phenylhept-4-en-3-one] | >13.05 | > 32.4 µM | > 32.4 µM | >13.05 |  | 2.48e-06 M |  |  |  |  |  |  |  |  | 
COc1cc(C=CC=O)ccc1O [Compound 8, 4-hydroxy-3-methoxycinnamaldehyde] | >3.47 | > 57 µM | > 48.1 µM | >2.93 | > 1e-05 M | 1.64e-05 M |  | 1.64e-05 ± 2.78e-06 M |  |  |  |  |  |  | 
C=CCc1ccc(Oc2cc(/C=C/C=O)cc(O)c2O)cc1 [Compound 9, obovatal] | >3.42 | > 33.8 µM | > 33.8 µM | >3.42 | 9.89e-06 ± 5.1e-07 M | 9.89e-06 M |  |  |  |  |  |  |  |  | 
C=CCc1ccc(O)c(-c2ccc(O)c(CC=C)c2)c1 [Compound 10, honokiol] | >4.29 | > 37.6 µM | > 37.6 µM | >4.29 | 8.76e-06 ± 3.8e-07 M | 8.77e-06 M |  |  |  |  |  |  |  |  | 
C=C[C@H](OC(C)=O)c1ccc(OC(C)=O)cc1 [Compound 11, 1′S-1′-acetoxychavicol acetate] | >6.38 | > 30 µM | > 23.2 µM | >4.94 | < 5e-06 M | 4.7e-06 M |  | 4.7e-06 ± 1.53e-06 M |  |  |  |  |  |  | 
COc1ccc([C@H](O)[C@@H](C)Oc2ccc([C@H]3O[C@H](c4ccc5c(c4)OCO5)[C@H](C)[C@H]3C)cc2OC)cc1OC [Compound 12, saucerneol D] | >3.32 | > 18.6 µM | > 16.2 µM | >2.89 | 5.61e-06 ± 9e-08 M | 5.61e-06 M |  |  |  |  |  |  |  |  | 
COc1ccc([C@@H](O)[C@@H](C)Oc2ccc([C@H]3O[C@H](c4ccc(O[C@H](C)[C@H](O)c5ccc(OC)c(OC)c5)c(OC)c4)[C@H](C)[C@H]3C)cc2OC)cc1OC [Compound 13, manassantin A] |  |  |  |  |  |  |  |  | > 13.7 µM | > 11.8 µM | 5.43e-06 ± 2.6e-07 M | 5.43e-06 M |  |  | 
COc1ccc([C@@H](O)[C@@H](C)Oc2ccc([C@H]3O[C@H](c4ccc(O[C@H](C)[C@H](O)c5ccc6c(c5)OCO6)c(OC)c4)[C@H](C)[C@H]3C)cc2OC)cc1OC [Compound 14, manassantin B] | >3.93 | > 13.9 µM | > 11 µM | >3.12 | < 5e-06 M | 3.54e-06 M |  | 3.54e-06 ± 4.9e-07 M |  |  |  |  |  |  | 
C=C(C)[C@H](CC=C(C)C)Cc1c(O)cc(O)c2c1O[C@H](c1ccc(O)cc1O)CC2=O [Compound 15, kushenol F] | >17.34 | > 23.8 µM | > 23.8 µM | >17.34 |  | 1.37e-06 M |  |  |  |  |  |  |  |  | 
O=c1cc(-c2ccc(O)cc2)oc2cc(O)cc(O)c12 [Compound 16, apigenin] | >3.38 | > 37 µM | > 37 µM | >3.38 | > 1e-05 M | 1.1e-05 M | anti-trypanosomal activity | 1.1e-05 ± 2.64e-06 M |  |  |  |  |  |  | 
COc1ccc(-c2cc(=O)c3c(O)c(OC)c(O)cc3o2)cc1OC [Compound 17, eupatilin] | >3.58 | > 29.1 µM | > 29.1 µM | >3.58 | 8.14e-06 ± 1.37e-06 M | 8.15e-06 M |  |  |  |  |  |  |  |  | 
CC(C)=CCc1c(-c2ccc(O)cc2O)oc2c3c(cc(O)c2c1=O)OC(C)(C)C=C3 [Compound 18, morusin] | >6.98 | > 23.7 µM | > 23.7 µM | >6.98 | < 5e-06 M | 3.4e-06 M |  | 3.4e-06 ± 1.5e-07 M |  |  |  |  |  |  | 
O=C1c2ccc(O)cc2OC[C@H]1Cc1ccc(O)c(O)c1 [Compound 19, 3-deoxysappanone B] | >6.04 | > 35 µM | > 35 µM | >6.04 | 5.8e-06 ± 7e-08 M | 5.79e-06 M |  |  |  |  |  |  |  |  | 
CC(C)=CCc1c(O)c(CC=C(C)C)c2occ(-c3ccc(O)c(O)c3)c(=O)c2c1O [Compound 20, 6,8-diprenylorobol] | >46.34 | > 24.1 µM | > 24.1 µM | >46.34 |  | 5.2e-07 M |  |  |  |  |  |  |  |  | 
O=c1c(-c2ccc(O)cc2)coc2cc(O[C@@H]3O[C@H](CO)[C@@H](O)[C@H](O)[C@H]3O)cc(O)c12 [Compound 21, genistin] | >6.99 | > 23.1 µM | > 23.1 µM | >6.99 | < 5e-06 M | 3.31e-06 M |  | 3.31e-06 ± 7.5e-07 M |  |  |  |  |  |  | 
O=c1c(-c2ccc(O[C@@H]3O[C@H](CO)[C@@H](O)[C@H](O)[C@H]3O)cc2)coc2cc(O)cc(O)c12 [Compound 22, sophoricoside] | >3.56 | > 23.1 µM | > 23.1 µM | >3.56 | 6.5e-06 ± 5.2e-07 M | 6.5e-06 M |  |  |  |  |  |  |  |  | 
N=C(N)c1ccc(OCCCCCOc2ccc(C(=N)N)cc2)cc1 [Pentamidine, reference compound] |  |  |  | <26.7 | 4e-09 ± 3e-09 M |  |  |  |  |  |  |  |  |  | 
demethoxycurcumin [Compound 2] |  |  |  |  |  |  | anti-trypanosomal activity | 7.19e-06 ± 1.02e-06 M |  |  |  |  | > 29.6 µM | > 21.4 µM | 5.143
